According to PMC8272914 (Journal of medicinal chemistry, 2019):

How the values were obtained:
hD3R = hD3R (Homo sapiens, UniProt P35462); test: Radioligand competition binding vs [3H]-; settings: for Ki: D3R Ki ± SEM, HEK293 cells stably expressing hD3R
hD2R = hD2R (Homo sapiens, UniProt P14416); test: Radioligand competition binding vs [3H]-; settings: vs. [3H]-(R)-(+)-7-OH-DPAT; for Ki: D2R Ki ± SEM, HEK293 cells stably expressing hD2R
D3R = D3R (Homo sapiens, UniProt P35462); settings: cited from earlier work
Chain of D3R (P35462 whole entry): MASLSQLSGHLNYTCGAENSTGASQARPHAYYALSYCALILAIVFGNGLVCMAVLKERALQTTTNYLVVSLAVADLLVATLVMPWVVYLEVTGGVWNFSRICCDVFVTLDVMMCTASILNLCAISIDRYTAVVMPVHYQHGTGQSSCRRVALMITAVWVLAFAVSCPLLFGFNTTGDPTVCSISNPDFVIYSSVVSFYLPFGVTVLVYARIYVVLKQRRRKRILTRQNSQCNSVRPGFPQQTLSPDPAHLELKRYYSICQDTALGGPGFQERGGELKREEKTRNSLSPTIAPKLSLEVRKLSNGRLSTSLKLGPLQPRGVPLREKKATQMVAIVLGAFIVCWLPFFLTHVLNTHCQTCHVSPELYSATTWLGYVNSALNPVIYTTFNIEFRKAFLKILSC

[1] = drug self-administration and drug discrimination, rats; cited from earlier work
[2] = Table 2, vs. [3H]-(R)-(+)-7-OH-DPAT
[3] = Table 1, vs. [3H]-(R)-(+)-7-OH-DPAT

Chain of hD2R (P14416 whole entry): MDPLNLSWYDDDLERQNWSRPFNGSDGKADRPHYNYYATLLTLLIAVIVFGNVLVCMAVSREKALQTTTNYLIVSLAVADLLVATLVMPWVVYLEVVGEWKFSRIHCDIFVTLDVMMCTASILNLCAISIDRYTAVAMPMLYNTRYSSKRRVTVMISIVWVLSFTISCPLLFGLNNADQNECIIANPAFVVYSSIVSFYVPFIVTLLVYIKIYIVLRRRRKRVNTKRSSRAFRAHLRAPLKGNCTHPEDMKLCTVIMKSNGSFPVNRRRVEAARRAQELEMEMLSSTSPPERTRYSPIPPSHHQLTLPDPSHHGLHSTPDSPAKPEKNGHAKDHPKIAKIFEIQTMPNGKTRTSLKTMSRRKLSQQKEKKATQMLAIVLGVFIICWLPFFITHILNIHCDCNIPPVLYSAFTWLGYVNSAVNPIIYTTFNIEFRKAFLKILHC
Chain of hD3R (P35462 whole entry): as the sequence (P35462 whole entry) above

SMILES: CCCN(CCC)c1ccc(C2CN(CCC)[C@@H](C)CO2)cn1 (stereo partly drawn) [Compound 20, 5-((5S)-5-methyl-4-propylmorpholin-2-yl)-N,N-dipropylpyridin-2-amine]
- D4R/D3R (hD3R; Table 2, ratio of Ki values vs. [3H]-(R)-(+)-7-OH-DPAT): >4.74

SMILES: C[C@H]1CO[C@H](c2ccc(N)nc2)CN1CC1CC1CNC(=O)c1cc2ccccc2[nH]1 (stereo partly drawn) [Compound 39b, cis-N-((2-(((2R,5S)-2-(6-aminopyridin-3-yl)-5-methylmorpholino)methyl)cyclopropyl)methyl)-1H-indole-2-carboxamide]
- Ki (hD2R; Table 2): 7.73 µM
- Ki (hD3R; [2]): 32.9 µM

SMILES: C[C@H]1CO[C@H](c2ccc(N)nc2)CN1CC1CC1CNC(=O)c1cc2ccccc2[nH]1 (stereo partly drawn) [Compound 39a, cis-N-((2-(((2R,5S)-2-(6-aminopyridin-3-yl)-5-methylmorpholino)methyl)cyclopropyl)methyl)-1H-indole-2-carboxamide]
- Ki (hD3R; [2]): 26.2 µM

SMILES: C[C@H]1CO[C@@H](c2ccc(N)nc2)CN1CC1CC1CNC(=O)c1cc2ccccc2[nH]1 (stereo partly drawn) [Compound 38b, cis-N-((2-(((2S,5S)-2-(6-aminopyridin-3-yl)-5-methylmorpholino)methyl)cyclopropyl)methyl)-1H-indole-2-carboxamide]
- Ki (hD2R; Table 2): 0.12 ± 0.0166 µM
- Ki (hD3R; [2]): 0.276 ± 0.03 µM

SMILES: C[C@H]1CO[C@@H](c2ccc(N)nc2)CN1CC1CC1CNC(=O)c1cc2ccccc2[nH]1 (stereo partly drawn) [Compound 37a, trans-N-((2-(((2S,5S)-2-(6-aminopyridin-3-yl)-5-methylmorpholino)methyl)cyclopropyl)methyl)-1H-indole-2-carboxamide]
- selectivity for D2R over D3R (hD2R): ~ 5 fold
- Ki (hD3R; [2]): 1.19 µM

SMILES: CCCN1CCO[C@@H]2c3cc(O)ccc3OC[C@H]21 [Compound 1, (4aR,10bR)-4-propyl-3,4,4a,10b-tetrahydro-2H,5H-chromeno[4,3-b][1,4]oxazin-9-ol]
- D3R over D2R selectivity (D3R): ~ 10 fold

SMILES: C[C@H]1CO[C@@H](c2ccc(N)nc2)CN1CC1CC1CNC(=O)c1cc2ccccc2[nH]1 (stereo partly drawn) [Compound 37b, trans-N-((2-(((2S,5S)-2-(6-aminopyridin-3-yl)-5-methylmorpholino)methyl)cyclopropyl)methyl)-1H-indole-2-carboxamide]
- Ki (hD2R; Table 2): 0.707 ± 0.0198 µM
- Ki (hD3R; [2]): 0.404 ± 0.034 µM

SMILES: O=C(NCCCCNC1COc2ccc(O)cc2C1=O)c1cc2ccccc2[nH]1 (stereo not shown) [Compound 19b, N-(4-((6-hydroxy-4-oxochroman-3-yl)amino)butyl)-1H-indole-2-carboxamide]
- Ki (hD2R; Table 1): 1.43 µM
- Ki (hD3R; [3]): 1.77 µM
- reduced affinity (loss of affinity) at both D2R and D3R relative to parent 1 (hD3R; vs. [3H]-(R)-(+)-7-OH-DPAT): 100–1,000 fold

SMILES: Oc1ccc2c(c1)[C@H]1OCCN[C@@H]1CO2 [Compound 15, (4aR,10bR)-3,4,4a,10b-tetrahydro-2H,5H-chromeno[4,3-b][1,4]oxazin-9-ol]
- reduced affinity (loss of affinity) at both D2R and D3R relative to parent 1 (hD3R; vs. [3H]-(R)-(+)-7-OH-DPAT): > 200 fold
- selectivity for D3R over D2R (hD3R; vs. [3H]-(R)-(+)-7-OH-DPAT): 10 fold

SMILES: CCCN1CC(c2ccc(N)nc2)OC[C@@H]1C (stereo partly shown) [Compound 2]
- abuse potential [1]: lack of abuse potential

SMILES: O=C(NCCCCNC1COc2ccc(O)cc2C1=O)c1cc2ccccc2[nH]1 (stereo not shown) [Compound 19a, N-(4-((6-hydroxy-4-oxochroman-3-yl)amino)butyl)-1H-indole-2-carboxamide]
- Ki (hD3R; [3]): 0.354 ± 0.0451 µM
- reduced affinity (loss of affinity) at both D2R and D3R relative to parent 1 (hD3R; vs. [3H]-(R)-(+)-7-OH-DPAT): 100–1,000 fold

SMILES: CCCN[C@H]1CCc2nc(N)sc2C1 [Pramipexole, reference compound]
- Ki (hD3R; [3]): 0.00169 µM

SMILES: C[C@H]1CO[C@@H](c2ccc(N)nc2)CN1CCCCOc1ccc2c(c1)NC(=O)CC2 [Compound 26, 7-(4-((2S,5S)-2-(6-aminopyridin-3-yl)-5-methylmorpholino)butoxy)-3,4-dihydroquinolin-2(1H)-one]
- higher D3R affinity compared to its (2R,5S) diastereoisomer (hD3R; 27 vs 25, 26 vs 24, vs. [3H]-(R)-(+)-7-OH-DPAT): 775 fold

SMILES: C[C@H]1CO[C@@H](c2ccc(N)nc2)CN1CC1CC1CNC(=O)c1cc2ccccc2[nH]1 (stereo partly drawn) [Compound 38a, cis-N-((2-(((2S,5S)-2-(6-aminopyridin-3-yl)-5-methylmorpholino)methyl)cyclopropyl)methyl)-1H-indole-2-carboxamide]
- Ki (hD2R; Table 2): 1.07 µM
- Ki (hD3R; [2]): 2.15 µM

SMILES: CCCN(CCC)C1CCc2ccc(O)cc2C1 (stereo not shown) [Compound 7-OH-DPAT, 7-Hydroxy-N,N-dipropyl-2-aminotetralin]
- D3R over D2R selectivity (D3R): ~ 10 fold

SMILES: CCc1cc(Cl)c(OC)c(N2CCN(CCCCOc3ccc4c(c3)NC(=O)CC4)CC2)c1 [Compound 57, 7-(4-(4-(3-chloro-5-ethyl-2-methoxyphenyl)piperazin-1-yl)butoxy)-3,4-dihydroquinolin-2(1H)-one]
- selectivity for D2R over D3R (hD2R): 22 fold
